According to article PMC3079055 (Archives of biochemistry and biophysics, 2011):

What was measured:
[1] = molecular target: C. albicans CYP51F1 wild-type (Candida albicans, UniProt P10613); assay: Spectral binding titration of purified CYP51F1 wild type
[2] = molecular target: C. albicans CYP51F1 F105L mutant (Candida albicans, UniProt P10613, F105L); assay: Spectral binding titration of purified CYP51F1 F105L mutant
[3] = molecular target: C. albicans CYP51F1 D116E mutant (Candida albicans, UniProt P10613, D116E); assay: Spectral binding titration of purified CYP51F1 D116E mutant
[4] = molecular target: C. albicans CYP51F1 Y132H mutant (Candida albicans, UniProt P10613, Y132H); assay: Spectral binding titration of purified CYP51F1 Y132H mutant
[5] = molecular target: C. albicans CYP51F1 R467K mutant (Candida albicans, UniProt P10613, R467K); assay: Spectral binding titration of purified CYP51F1 R467K mutant

Compound	Kd [1]	Kd [2]	Kd [3]	Kd [4]	Kd [5]
OC(Cn1cncn1)(Cn1cncn1)c1ccc(F)cc1F [Fluconazole, fluconazole]	60 ± 10 nM	20 ± 10 nM	30 ± 10 nM	150 ± 60 nM	60 ± 10 nM
CCC(C)n1ncn(-c2ccc(N3CCN(c4ccc(OCC5COC(Cn6cncn6)(c6ccc(Cl)cc6Cl)O5)cc4)CC3)cc2)c1=O (centres unmarked) [Itraconazole, itraconazole]	190 ± 60 nM	160 ± 40 nM	150 ± 30 nM	–	180 ± 40 nM
CC(C)=CCC[C@@H](C)[C@H]1CC[C@@]2(C)C3=C(CC[C@]12C)[C@@]1(C)CC[C@H](O)C(C)(C)[C@@H]1CC3 [lanosterol, Lanosterol]	6700 nM	–	–	–	–
CC(=O)N1CCN(c2ccc(OCC3COC(Cn4ccnc4)(c4ccc(Cl)cc4Cl)O3)cc2)CC1 (centres unmarked) [Ketoconazole, ketoconazole]	420 ± 80 nM	170 ± 40 nM	430 ± 80 nM	540 ± 70 nM	660 ± 130 nM
Clc1ccc(COC(Cn2ccnc2)c2ccc(Cl)cc2Cl)cc1 (centres unmarked) [Econazole, econazole]	200 ± 40 nM	100 ± 30 nM	140 ± 30 nM	420 ± 60 nM	130 ± 30 nM
